Biological target: Hematopoietic prostaglandin D synthase (Homo sapiens, UniProt O60760)
Experiment: Binding affinity to full length recombinant human N-terminal His6-tagged H-PGDS expressed in Escherichia coli BL21(DE3) by SPR analysis

Chain of Hematopoietic prostaglandin D synthase (O60760 whole entry): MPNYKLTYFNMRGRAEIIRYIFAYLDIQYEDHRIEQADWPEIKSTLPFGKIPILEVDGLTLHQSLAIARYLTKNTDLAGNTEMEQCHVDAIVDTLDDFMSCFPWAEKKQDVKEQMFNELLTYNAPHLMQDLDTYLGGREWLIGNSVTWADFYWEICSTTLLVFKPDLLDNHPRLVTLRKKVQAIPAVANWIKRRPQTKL

Q: How did the Kd turn out when `O=C(Nc1ccc(N2CCC(C(=O)N3CCOCC3)CC2)cc1)c1cnc(Oc2ccccc2)nc1` was run?
A: 0.37 nM

Q: With `O=C(Nc1ccc(N2CCCC2=O)cc1)c1cnc(-c2ccccn2)nc1` as the molecule, how does the Kd read?
A: 0.14 nM
